Source: patent US4535075A, “Dithiolane derivative, process for producing the same and use thereof” (Nihon Nohyaku Co., Ltd., priority 1982, dated 1985)

Tested on: liver damage induced by carbon tetrachloride
Test: Protective (Controlling) effect on liver damage induced by carbon tetrachloride
Type: in vivo, mice (dd strain)
Details: for p-GPT: CCl4 alone >2,100; for Liver Damage Index: average of 5 mice, CCl4 alone 5.0
Text: Protective (Controlling) Effect on liver damage induced by carbon tetrachloride.
Carbon tetrachloride administration induces centrilobular necrosis of the liver associated with loss of diphosphopyridine nucleotide, hepatic glycogen, coenzyme A and increase in neutral fat. Release of several enzymes from the hepatocytes, and increases of enzyme activities in the plasma are recognized as the result of the damage of the liver.
A suitable means for evaluating the degree induced by carbon tetrachloride or the degree of protection afforded by drugs is to study the plasma glutamic-pyruvic transaminase (p-GPT) activity. […]
After 6 hours, carbon tetrachloride was administered orally 0.05 ml/kg.
Animals were killed 24 hours after carbon tetrachloride administration, and the liver was grossly observed.
The plasma was obtained by centrifugation. Activity of p-GPT were determined by the method of Reitman and Frankel and expressed in Karmen units.
Score for liver damage index was as follows:
1 Each figure indicated average of 5 mice.

[1] = 250 mg/kg p.o., CCl4 0.05 ml/kg after 6 h, 24 h
[2] = 250 mg/kg p.o., CCl4 0.05 ml/kg after 6 h, 24 h, 0 Normal, 2 Slightly recognized, 4 Clearly observable damage, 6 Heavy damage

Row | SMILES | p-GPT [1] | Liver Damage Index [2] | Liver Damage Index (administered at 100 mg/kg p.o., scale 0 Normal to 6 Heavy damage) | p-GPT (administered at 100 mg/kg p.o.)
1 | COC(=O)C(C#N)=C1SC(O)C(O)S1 (stereo not shown) [Compound 24] | 152 Karmen units | 1.0 | – | –
2 | CCOC(=O)C(C#N)=C1SC(O)C(O)S1 (stereo not shown) [Compound 25] | – | 2.0 | – | –
3 | CCCOC(=O)C(C#N)=C1SC(O)C(O)S1 (stereo not shown) [Compound 26] | 24 Karmen units | 0.0 | – | –
4 | CC(C)OC(=O)C(C#N)=C1SC(O)C(O)S1 (stereo not shown) [Compound 27, isopropyl 4,5-dihydroxy-1,3-dithiolan-2-ylidenecyanoacetate] | 23 Karmen units | 0.2 | – | –
5 | CCCCOC(=O)C(C#N)=C1SC(O)C(O)S1 (stereo not shown) [Compound 28] | 80 Karmen units | 0.4 | – | –
6 | CC(C)COC(=O)C(C#N)=C1SC(O)C(O)S1 (stereo not shown) [Compound 29] | 175 Karmen units | 1.0 | – | –
7 | CCCCCOC(=O)C(C#N)=C1SC(O)C(O)S1 (stereo not shown) [Compound 30] | 116 Karmen units | 0.6 | – | –
8 | CC(C)CCOC(=O)C(C#N)=C1SC(O)C(O)S1 (stereo not shown) [Compound 31] | 105 Karmen units | 0.6 | – | –
9 | CCCCCCOC(=O)C(C#N)=C1SC(O)C(O)S1 (stereo not shown) [Compound 33] | 93 Karmen units | 0.8 | – | –
10 | CCOC(=O)C(C(=O)CC)=C1SC(O)C(O)S1 (stereo not shown) [Compound 49] | 23 Karmen units | 0.4 | – | –
11 | CCOC(=O)C(C(=O)C(C)C)=C1SC(O)C(O)S1 (stereo not shown) [Compound 51] | 172 Karmen units | 1.6 | – | –
12 | CCOC(=O)C(C(=O)CC(C)C)=C1SC(O)C(O)S1 (stereo not shown) [Compound 53] | 94 Karmen units | 0.8 | – | –
13 | CCCCCCC(=O)C(C(=O)OCC)=C1SC(O)C(O)S1 (stereo not shown) [Compound 54] | 188 Karmen units | 2.6 | – | –
14 | CCOC(=O)C(C(=O)Cc1ccccc1)=C1SC(O)C(O)S1 (stereo not shown) [Compound 55] | 105 Karmen units | 1.8 | – | –
15 | CCOC(=O)C(C(=O)c1ccccc1)=C1SC(O)C(O)S1 (stereo not shown) [Compound 56] | – | – | 4.0 | > 1418 Karmen units
16 | CC(=O)OC1SC(=C(C(=O)OC(C)C)C(=O)OC(C)C)SC1O (stereo not shown) [Compound 57, diisopropyl 4-hydroxy-5-methyl carbonyloxy-1,3-dithiolan-2-ylidenemalonate] | 262.0 Karmen units | 1.0 | – | –
17 | CC(=O)OC1SC(=C(C(=O)OC(C)C)C(=O)OC(C)C)SC1OC(C)=O (stereo not shown) [Compound 58] | 42.0 Karmen units | 1.0 | – | –
18 | CCCOC(=O)C(C(=O)OCCC)=C1SC(OC(C)=O)C(OC(C)=O)S1 (stereo not shown) [Compound 59] | 40.9 Karmen units | 0.4 | – | –
19 | CCC(C)OC(=O)C(C(=O)OC(C)CC)=C1SC(OC(C)=O)C(OC(C)=O)S1 (stereo not shown) [Compound 60] | 203.0 Karmen units | 0 | – | –

Row | SMILES | p-GPT [1] | Liver Damage Index [2] | Liver Damage Index (administered at 100 mg/kg p.o., scale 0 Normal to 6 Heavy damage) | p-GPT (administered at 100 mg/kg p.o.)
20 | CCCOC(=O)C(C(C)=O)=C1SC(OC(C)=O)C(OC(C)=O)S1 (stereo not shown) [Compound 61] | 1260 Karmen units | 0.8 | – | –
21 | CCCOC(=O)C(C(=O)OCCC)=C1SC(OC(=O)C(C)(C)C)C(OC(=O)C(C)(C)C)S1 (stereo not shown) [Compound 62] | 223.2 Karmen units | 1.2 | – | –
22 | CCCOC(=O)C(C(C)=O)=C1SC(OC(=O)C(C)(C)C)C(OC(=O)C(C)(C)C)S1 (stereo not shown) [Compound 63] | 402.6 Karmen units | 1.8 | – | –
23 | CCCOC(=O)C(C(=O)OCCC)=C1SC(OC(=O)N(C)C)C(OC(=O)N(C)C)S1 (stereo not shown) [Compound 64, di-n-propyl 4,5-bis (N,N-dimethylcarbamoyloxy)-1,3-dithiolane-2-ylidenemalonate] | – | 3.4 | – | –
24 | CCCOC(=O)C(C(C)=O)=C1SC(OC(=O)N(C)C)C(OC(=O)N(C)C)S1 (stereo not shown) [Compound 65] | 498.7 Karmen units | 1.6 | – | –
25 | CCCOC(=O)C(C(=O)OCCC)=C1SC(OC(=O)OCC)C(OC(=O)OCC)S1 (stereo not shown) [Compound 66] | 53.8 Karmen units | 0.2 | – | –
26 | CCCOC(=O)C(C(C)=O)=C1SC(OC(=O)OCC)C(OC(=O)OCC)S1 (stereo not shown) [Compound 67] | 127.7 Karmen units | 0.8 | – | –
27 | CCCOC(=O)C(C(=O)OCCC)=C1SC(OC(=O)CCC(=O)O)C(OC(=O)CCC(=O)O)S1 (stereo not shown) [Compound 68] | – | 2.0 | – | –
28 | CC(C)OC(=O)C(C(=O)OC(C)C)=C1SC(OC(=O)CCC(=O)O)C(OC(=O)CCC(=O)O)S1 (stereo not shown) [Compound 69] | – | 2.2 | – | –
29 | COC(=O)C(C(=O)OC)=C1SC(OC(=O)CCC(=O)O)C(OC(=O)CCC(=O)O)S1 (stereo not shown) [Compound 70] | 121.0 Karmen units | 1.2 | – | –
30 | CCC(C)OC(=O)C(C(=O)OC(C)CC)=C1SC(OC(=O)CCC(=O)O)C(OC(=O)CCC(=O)O)S1 (stereo not shown) [Compound 71, di-sec-butyl 4,5-bis(2'-carboxyethylcarbonyloxy)-1,3-dithiolan-2-ylidenemalonate] | – | 2.2 | – | –
31 | COC(=O)C(C(=O)OC)=C1SC2OC(=O)OC2S1 (stereo not shown) [Compound 72] | 32.3 Karmen units | 0 | – | –
32 | CCOC(=O)C(C(=O)OCC)=C1SC2OC(=O)OC2S1 (stereo not shown) [Compound 73] | 75.1 Karmen units | 0.8 | – | –
33 | CCCOC(=O)C(C(=O)OCCC)=C1SC2OC(=O)OC2S1 (stereo not shown) [Compound 74] | 38.8 Karmen units | 0 | – | –
34 | CC(C)OC(=O)C(C(=O)OC(C)C)=C1SC2OC(=O)OC2S1 (stereo not shown) [Compound 75] | 19.9 Karmen units | 0.2 | – | –
35 | CCCCOC(=O)C(C(=O)OCCCC)=C1SC2OC(=O)OC2S1 (stereo not shown) [Compound 76] | 84.8 Karmen units | 0.6 | – | –
36 | CC(C)COC(=O)C(C(=O)OCC(C)C)=C1SC2OC(=O)OC2S1 (stereo not shown) [Compound 77] | 21.2 Karmen units | 0.2 | – | –
37 | CCC(C)OC(=O)C(C(=O)OC(C)CC)=C1SC2OC(=O)OC2S1 (stereo not shown) [Compound 78] | 96.0 Karmen units | 0 | – | –
38 | CC(C)(C)OC(=O)C(C(=O)OC(C)(C)C)=C1SC2OC(=O)OC2S1 (stereo not shown) [Compound 79] | 66.0 Karmen units | 0.8 | – | –

Row | SMILES | p-GPT [1] | Liver Damage Index [2] | Liver Damage Index (administered at 100 mg/kg p.o., scale 0 Normal to 6 Heavy damage) | p-GPT (administered at 100 mg/kg p.o.)
39 | CCCCCOC(=O)C(C(=O)OCCCCC)=C1SC2OC(=O)OC2S1 (stereo not shown) [Compound 80] | 71.1 Karmen units | 0.4 | – | –
40 | CC(C)CCOC(=O)C(C(=O)OCCC(C)C)=C1SC2OC(=O)OC2S1 (stereo not shown) [Compound 81] | 108.1 Karmen units | 1.2 | – | –
41 | O=C1OC2SC(=C(C(=O)OC3CCCCC3)C(=O)OC3CCCCC3)SC2O1 (stereo not shown) [Compound 82] | 159.7 Karmen units | 0.4 | – | –
42 | O=C1OC2SC(=C(C(=O)OCc3ccccc3)C(=O)OCc3ccccc3)SC2O1 (stereo not shown) [Compound 83] | 105.5 Karmen units | 1.2 | – | –
43 | C=CCOC(=O)C(C(=O)OCC=C)=C1SC2OC(=O)OC2S1 (stereo not shown) [Compound 84] | 13.9 Karmen units | 0 | – | –
44 | C#CCOC(=O)C(C(=O)OCC#C)=C1SC2OC(=O)OC2S1 (stereo not shown) [Compound 85] | 30.3 Karmen units | 0 | – | –
45 | CC(C)COC(=O)C(C(=O)OC(C)C)=C1SC2OC(=O)OC2S1 (stereo not shown) [Compound 86] | > 436.4 Karmen units | 0.6 | – | –
46 | COC(=O)C(C(C)=O)=C1SC2OC(=O)OC2S1 (stereo not shown) [Compound 87] | 45.7 Karmen units | 0.6 | – | –
47 | CCOC(=O)C(C(C)=O)=C1SC2OC(=O)OC2S1 (stereo not shown) [Compound 88] | 211.6 Karmen units | 1.4 | – | –
48 | CC(=O)C(C(=O)OC(C)C)=C1SC2OC(=O)OC2S1 (stereo not shown) [Compound 89] | 26.3 Karmen units | 0.4 | – | –
49 | CCCOC(=O)C(C(C)=O)=C1SC2OC(=O)OC2S1 (stereo not shown) [Compound 90] | 23.2 Karmen units | 0.3 | – | –
50 | CCCCOC(=O)C(C(C)=O)=C1SC2OC(=O)OC2S1 (stereo not shown) [Compound 91] | 27.9 Karmen units | 0.8 | – | –
51 | CC(=O)C(C(=O)OCC(C)C)=C1SC2OC(=O)OC2S1 (stereo not shown) [Compound 92] | 29.4 Karmen units | 0.8 | – | –
52 | CC(=O)C(C(=O)OC(C)(C)C)=C1SC2OC(=O)OC2S1 (stereo not shown) [Compound 94, 7-(methylcarbonyl-tert-butoxycarbonyl)methylene-3-oxo-2,4-dioxa-6,8-dithiabicyclo[3,3,0]octane] | 26.5 Karmen units | 0.8 | – | –
53 | CCCCCOC(=O)C(C(C)=O)=C1SC2OC(=O)OC2S1 (stereo not shown) [Compound 95] | 28.2 Karmen units | 0.8 | – | –
54 | CC(=O)C(C(=O)OCCC(C)C)=C1SC2OC(=O)OC2S1 (stereo not shown) [Compound 96] | 15.4 Karmen units | 0 | – | –
55 | C=CCOC(=O)C(C(C)=O)=C1SC2OC(=O)OC2S1 (stereo not shown) [Compound 98] | 16.9 Karmen units | 0 | – | –
56 | C#CCOC(=O)C(C(C)=O)=C1SC2OC(=O)OC2S1 (stereo not shown) [Compound 99] | 18.4 Karmen units | 0 | – | –
57 | CCCC(=O)C(C(=O)OCC)=C1SC2OC(=O)OC2S1 (stereo not shown) [Compound 101] | 20.0 Karmen units | 0.2 | – | –
